# Experimental data from patent US20140106967A1, “AUXIN PLANT GROWTH REGULATORS” (The Governors of The University of Alberta, priority 2011, published 2014).
# System: pea plants cv. 'Carneval'
# Assay: Growth chamber experiment 2, pea 'Carneval' sprayed with 4-ME-IAA: peduncle/pedicel growth and seed yield, with or without heat stress (Tables P3-P12)
# Assay type: in vivo, Pisum sativum L.
# Procedure: For growth chamber experiment, seeds of ‘Carneval’ were planted at an approximate depth of 2.5 cm in 3-L plastic pots (4 seeds per pot and thinned to 2 plants per pot after approximately 2 weeks) in 1:1 Sunshine #4 potting mix (Sun Gro Horticulture, Vancouver, Canada) and sand. The experiment was arranged in a completely randomized design and grown at the University of Alberta in a growth chamber set at 19° C./17° C. (day/night) with a 16/8-h photoperiod under cool-white fluorescent lights (54W/835/HO high fluorescent bulbs, Phillips, Holland; 350 μE m^2 s^−2). For the heat stress treatment, plants were placed in a separate growth chamber with a 16/8-h photoperiod under cool-white fluorescent lights (F54/15/835/HO high fluorescent bulbs, Phillips, Holland) for 4 days where the temperature was cycled over a 24 hr period as follows: 33° C. air temperature for 6 hours per day (between 11:00 and 17:00 hrs) for 4 days during the light cycle; the remainder of the light cycle was maintained at a 22° C. air temperature; the dark cycle was maintained at 19° C. After the 4 day heat treatment, the plants were returned to the same growth chamber they were originally grown in, where they were taken to maturity.
# For experiment 2, aqueous 4-methyl-indole-3-acetic acid (4-ME-IAA) solutions at 1×10^−7, 1×10^−6, 1×10^−5, or 1×10^−4 M in 0.1% (v/v) Tween 80 or aqueous 0.1% (v/v) Tween 80 (control) were applied as a spray to the entire plant to cover when the first flowering node of the main stem was near or at anthesis. In addition to the application at the timing cited above, one application of 4-ME-IAA at 1×10^−6 M or 1×10^−5 M was made when the floral buds were tightly clustered inside the stipule leaves at the stem apex (floral buds not visible outside of stipule leaves; designated the ‘Early’ treatment). In the heat stress treatment, the hormone or control treatment application was completed 16 hrs prior to the initiation of the first heat-stress cycle. The length and diameter (measured mid-length) of the lower and upper peduncles and pedicels of the inflorescence with two pods (or the lower peduncle and pedicel if a single pod node) at the first, second, third and fourth flowering nodes of the main stem of pea plants were determined for hormone-treated and control plants. Standard error of the mean (SE) was calculated for the means of all data for a measure of statistical significance in comparing treatment means.
# [1] = 1×10^−4 M, applied near or at anthesis, no heat stress
# [2] = 1×10^−4 M, first flowering node, heat stress (33° C. 6 h/day, 4 days)
# [3] = 1×10^−4 M, first flowering node, no heat stress
# [4] = 1×10^−4 M, fourth flowering node, heat stress (33° C. 6 h/day, 4 days)
# [5] = 1×10^−4 M, fourth flowering node, no heat stress
# [6] = 1×10^−4 M, heat stress (33° C. 6 h/day, 4 days)
# [7] = 1×10^−4 M, second flowering node, heat stress (33° C. 6 h/day, 4 days)
# [8] = 1×10^−4 M, second flowering node, no heat stress
# [9] = 1×10^−4 M, third flowering node, heat stress (33° C. 6 h/day, 4 days)
# [10] = 1×10^−4 M, third flowering node, no heat stress
# [11] = 1×10^−5 M, applied near or at anthesis, no heat stress
# [12] = 1×10^−5 M, first flowering node, heat stress (33° C. 6 h/day, 4 days)
# [13] = 1×10^−5 M, first flowering node, no heat stress
# [14] = 1×10^−5 M, fourth flowering node, heat stress (33° C. 6 h/day, 4 days)
# [15] = 1×10^−5 M, fourth flowering node, no heat stress
# [16] = 1×10^−5 M, heat stress (33° C. 6 h/day, 4 days)
# [17] = 1×10^−5 M, second flowering node, heat stress (33° C. 6 h/day, 4 days)
# [18] = 1×10^−5 M, second flowering node, no heat stress
# [19] = 1×10^−5 M, third flowering node, heat stress (33° C. 6 h/day, 4 days)
# [20] = 1×10^−5 M, third flowering node, no heat stress
# [21] = 1×10^−6 M, applied near or at anthesis, no heat stress
# [22] = 1×10^−6 M, first flowering node, heat stress (33° C. 6 h/day, 4 days)
structure (smiles),measurement,setting,value
"Cc1cccc2[nH]cc(CC(=O)O)c12 [4-ME-IAA, 4-methyl-indole-3-acetic acid]",Ratio of seed number on main stem to lateral stems,[1],4.6 ± 1.1
same,Seed number per plant,[1],56.7 ± 3.6
same,Seed weight per plant,[1],14.0 ± 1.0 g
same,Weight per seed,[1],0.247 ± 0.006 g
same,increase in seed yield (seed weight per plant) vs control,[1],61%
same,Lower Pedicel Length,[2],7.63 ± 0.46 mm
same,Lower Pedicel diameter,[2],1.58 ± 0.09 mm
same,Lower Peduncle Length,[2],52.22 ± 4.26 mm
same,Lower Peduncle diameter,[2],1.71 ± 0.06 mm
same,Upper Pedicel Length,[2],7.00 ± 0.45 mm
same,Upper Pedicel diameter,[2],1.6 ± 0.07 mm
same,Upper Peduncle Length,[2],17.00 ± 1.37 mm
same,Upper Peduncle diameter,[2],1.44 ± 0.07 mm
same,Lower Pedicel Length,[3],8.50 ± 0.37 mm
same,Lower Pedicel diameter,[3],1.73 ± 0.05 mm
same,Lower Peduncle Length,[3],69.70 ± 4.21 mm
same,Lower Peduncle diameter,[3],1.73 ± 0.07 mm
same,Upper Pedicel Length,[3],8.10 ± 0.43 mm
same,Upper Pedicel diameter,[3],1.54 ± 0.05 mm
same,Upper Peduncle Length,[3],15.20 ± 1.36 mm
same,Upper Peduncle diameter,[3],1.44 ± 0.03 mm
same,Lower Pedicel Length,[4],7.00 ± 0.41 mm
same,Lower Pedicel diameter,[4],1.45 ± 0.11 mm
same,Lower Peduncle Length,[4],25.50 ± 3.97 mm
same,Lower Peduncle diameter,[4],1.38 ± 0.10 mm
same,Upper Pedicel Length,[4],7.00 ± 0.0 mm
same,Upper Pedicel diameter,[4],1.33 ± 0.15 mm
same,Upper Peduncle Length,[4],14.50 ± 0.50 mm
same,Upper Peduncle diameter,[4],1.17 ± 0.02 mm
same,Lower Pedicel Length,[5],8.44 ± 0.23 mm
same,Lower Pedicel diameter,[5],1.42 ± 0.05 mm
same,Lower Peduncle Length,[5],41.00 ± 3.24 mm
same,Lower Peduncle diameter,[5],1.36 ± 0.06 mm
same,Upper Pedicel Length,[5],8.22 ± 0.14 mm
same,Upper Pedicel diameter,[5],1.36 ± 0.06 mm
same,Upper Peduncle Length,[5],16.67 ± 0.39 mm
same,Upper Peduncle diameter,[5],1.17 ± 0.04 mm
same,Ratio of seed number on main stem to lateral stems,[6],2.1 ± 0.4
same,Seed number plant,[6],55.6 ± 6.2
same,Seed weight per per plant,[6],14.5 ± 1.7 g
same,Weight per seed,[6],0.261 ± 0.009 g
same,Lower Pedicel Length,[7],7.56 ± 0.38 mm
same,Lower Pedicel diameter,[7],1.56 ± 0.06 mm
same,Lower Peduncle Length,[7],40.33 ± 4.51 mm
same,Lower Peduncle diameter,[7],1.63 ± 0.04 mm
same,Upper Pedicel Length,[7],7.25 ± 0.25 mm
same,Upper Pedicel diameter,[7],1.54 ± 0.05 mm
same,Upper Peduncle Length,[7],16.88 ± 1.52 mm
same,Upper Peduncle diameter,[7],1.29 ± 0.04 mm
same,Lower Pedicel Length,[8],8.30 ± 0.47 mm
same,Lower Pedicel diameter,[8],1.65 ± 0.05 mm
same,Lower Peduncle Length,[8],55.60 ± 4.08 mm
same,Lower Peduncle diameter,[8],1.67 ± 0.06 mm
same,Upper Pedicel Length,[8],8.3 ± 0.47 mm
same,Upper Pedicel diameter,[8],1.55 ± 0.05 mm
same,Upper Peduncle Length,[8],18.40 ± 0.72 mm
same,Upper Peduncle diameter,[8],1.38 ± 0.05 mm
same,Lower Pedicel Length,[9],7.33 ± 0.29 mm
same,Lower Pedicel diameter,[9],1.55 ± 0.08 mm
same,Lower Peduncle Length,[9],28.22 ± 3.07 mm
same,Lower Peduncle diameter,[9],1.53 ± 0.06 mm
same,Upper Pedicel Length,[9],7.50 ± 0.29 mm
same,Upper Pedicel diameter,[9],1.49 ± 0.05 mm
same,Upper Peduncle Length,[9],14.00 ± 1.00 mm
same,Upper Peduncle diameter,[9],1.29 ± 0.03 mm
same,Lower Pedicel Length,[10],8.20 ± 0.33 mm
same,Lower Pedicel diameter,[10],1.49 ± 0.06 mm
same,Lower Peduncle Length,[10],49.90 ± 4.2 mm
same,Lower Peduncle diameter,[10],1.53 ± 0.05 mm
same,Upper Pedicel Length,[10],8.10 ± 0.28 mm
same,Upper Pedicel diameter,[10],1.40 ± 0.06 mm
same,Upper Peduncle Length,[10],19.10 ± 0.75 mm
same,Upper Peduncle diameter,[10],1.21 ± 0.04 mm
same,Ratio of seed number on main stem to lateral stems,[11],3.3 ± 0.6
same,Seed number per plant,[11],60.3 ± 3.2
same,Seed weight per plant,[11],14.0 ± 0.9 g
same,Weight per seed,[11],0.230 ± 0.004 g
same,increase in seed yield (seed weight per plant) vs control,[11],61%
same,Lower Pedicel Length,[12],9.11 ± 0.26 mm
same,Lower Pedicel diameter,[12],1.59 ± 0.06 mm
same,Lower Peduncle Length,[12],61.33 ± 4.13 mm
same,Lower Peduncle diameter,[12],1.60 ± 0.08 mm
same,Upper Pedicel Length,[12],8.83 ± 0.17 mm
same,Upper Pedicel diameter,[12],1.56 ± 0.08 mm
same,Upper Peduncle Length,[12],16.00 ± 1.46 mm
same,Upper Peduncle diameter,[12],1.33 ± 0.04 mm
same,Lower Pedicel Length,[13],8.70 ± 0.45 mm
same,Lower Pedicel diameter,[13],1.58 ± 0.04 mm
same,Lower Peduncle Length,[13],63.10 ± 4.95 mm
same,Lower Peduncle diameter,[13],1.53 ± 0.05 mm
same,Upper Pedicel Length,[13],8.70 ± 0.37 mm
same,Upper Pedicel diameter,[13],1.49 ± 0.03 mm
same,Upper Peduncle Length,[13],19.90 ± 1.12 mm
same,Upper Peduncle diameter,[13],1.31 ± 0.03 mm
same,Lower Pedicel Length,[14],7.17 ± 0.48 mm
same,Lower Pedicel diameter,[14],1.41 ± 0.07 mm
same,Lower Peduncle Length,[14],29.50 ± 2.63 mm
same,Lower Peduncle diameter,[14],1.39 ± 0.02 mm
same,Lower Pedicel Length,[15],9.00 ± 0.44 mm
same,Lower Pedicel diameter,[15],1.22 ± 0.09 mm
same,Lower Peduncle Length,[15],40.22 ± 3.64 mm
same,Lower Peduncle diameter,[15],1.41 ± 0.05 mm
same,Upper Pedicel Length,[15],8.88 ± 0.44 mm
same,Upper Pedicel diameter,[15],1.11 ± 0.10 mm
same,Upper Peduncle Length,[15],18.13 ± 0.88 mm
same,Upper Peduncle diameter,[15],1.03 ± 0.08 mm
same,Ratio of seed number on main stem to lateral stems,[16],1.1 ± 0.1
same,Seed number plant,[16],50.6 ± 5.0
same,Seed weight per per plant,[16],13.7 ± 1.2 g
same,Weight per seed,[16],0.274 ± 0.005 g
same,Lower Pedicel Length,[17],8.11 ± 0.11 mm
same,Lower Pedicel diameter,[17],1.68 ± 0.07 mm
same,Lower Peduncle Length,[17],47.11 ± 5.35 mm
same,Lower Peduncle diameter,[17],1.58 ± 0.05 mm
same,Upper Pedicel Length,[17],8.00 ± 0.29 mm
same,Upper Pedicel diameter,[17],1.55 ± 0.06 mm
same,Upper Peduncle Length,[17],16.33 ± 0.82 mm
same,Upper Peduncle diameter,[17],1.32 ± 0.04 mm
same,Lower Pedicel Length,[18],8.80 ± 0.33 mm
same,Lower Pedicel diameter,[18],1.50 ± 0.04 mm
same,Lower Peduncle Length,[18],53.50 ± 5.01 mm
same,Lower Peduncle diameter,[18],1.45 ± 0.04 mm
same,Upper Pedicel Length,[18],8.60 ± 0.37 mm
same,Upper Pedicel diameter,[18],1.39 ± 0.04 mm
same,Upper Peduncle Length,[18],18.10 ± 0.74 mm
same,Upper Peduncle diameter,[18],1.16 ± 0.03 mm
same,Lower Pedicel Length,[19],7.67 ± 0.37 mm
same,Lower Pedicel diameter,[19],1.58 ± 0.06 mm
same,Lower Peduncle Length,[19],39.22 ± 3.35 mm
same,Lower Peduncle diameter,[19],1.52 ± 0.05 mm
same,Upper Pedicel Length,[19],7.00 ± 0.32 mm
same,Upper Pedicel diameter,[19],1.56 ± 0.08 mm
same,Upper Peduncle Length,[19],16.20 ± 1.74 mm
same,Upper Peduncle diameter,[19],1.38 ± 0.09 mm
same,Lower Pedicel Length,[20],8.56 ± 0.41 mm
same,Lower Pedicel diameter,[20],1.35 ± 0.04 mm
same,Lower Peduncle Length,[20],47.11 ± 4.73 mm
same,Lower Peduncle diameter,[20],1.53 ± 0.03 mm
same,Upper Pedicel Length,[20],8.67 ± 0.29 mm
same,Upper Pedicel diameter,[20],1.25 ± 0.05 mm
same,Upper Peduncle Length,[20],20.44 ± 1.00 mm
same,Upper Peduncle diameter,[20],1.13 ± 0.05 mm
same,Ratio of seed number on main stem to lateral stems,[21],2.9 ± 0.6
same,Seed number per plant,[21],63.3 ± 4.6
same,Seed weight per plant,[21],14.9 ± 0.9 g
same,Weight per seed,[21],0.238 ± 0.006 g
same,increase in seed yield (seed weight per plant) vs control,[21],71%
same,Lower Pedicel Length,[22],8.80 ± 0.29 mm
same,Lower Pedicel diameter,[22],1.47 ± 0.05 mm
same,Lower Peduncle Length,[22],60.40 ± 5.23 mm
